Numbered stars: 1 amine (or outer) side, 2 acyl side, 3 side chain; on linkers, the order of the positions; unused ones are H or OH. Bridge positions count the residues as written; N and C are the ends. Square brackets hold non-standard residues; d marks the D form. Peptide text beside a SMILES is read from it. Ala(1H-tetrazol-5-yl) = N[C@@H](Cc1nnn[nH]1)C(=O)O; Phe(4-CH2NH2) = NCc1ccc(C[C@H](N)C(=O)O)cc1; mXylylene = c1cc(C[*:1])cc(C[*:2])c1; NMeI = CC[C@H](C)[C@H](NC)C(=O)O; Gly(cPr) = N[C@H](C(=O)O)C1CC1; Chg = N[C@H](C(=O)O)C1CCCCC1; Pen = CC(C)(S)[C@H](N)C(=O)O; Phg = N[C@H](C(=O)O)c1ccccc1; Tle = CC(C)(C)[C@H](N)C(=O)O; Nle = CCCC[C@H](N)C(=O)O; Nva = CCC[C@H](N)C(=O)O; Aib = CC(C)(N)C(=O)O; Mpa = O=C(O)CCS
Target: T1, human plasma kallikrein (Homo sapiens, UniProt P03952)
T1 construct: purchased Enzyme Research Laboratories HPKa 1303
T1 sequence (P03952 20-390 limits assumed): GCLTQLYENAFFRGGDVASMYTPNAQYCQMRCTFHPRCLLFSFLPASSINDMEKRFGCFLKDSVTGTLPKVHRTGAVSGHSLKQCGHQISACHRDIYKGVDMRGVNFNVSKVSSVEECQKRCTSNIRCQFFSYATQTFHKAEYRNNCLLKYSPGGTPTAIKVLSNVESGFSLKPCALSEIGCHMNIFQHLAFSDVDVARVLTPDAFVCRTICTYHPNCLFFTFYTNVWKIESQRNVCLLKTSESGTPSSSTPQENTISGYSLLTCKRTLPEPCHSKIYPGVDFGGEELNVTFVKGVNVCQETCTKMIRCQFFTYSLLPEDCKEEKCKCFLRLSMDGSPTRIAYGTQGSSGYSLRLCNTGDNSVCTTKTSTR
T1 sequence (P03952 391-638 limits assumed): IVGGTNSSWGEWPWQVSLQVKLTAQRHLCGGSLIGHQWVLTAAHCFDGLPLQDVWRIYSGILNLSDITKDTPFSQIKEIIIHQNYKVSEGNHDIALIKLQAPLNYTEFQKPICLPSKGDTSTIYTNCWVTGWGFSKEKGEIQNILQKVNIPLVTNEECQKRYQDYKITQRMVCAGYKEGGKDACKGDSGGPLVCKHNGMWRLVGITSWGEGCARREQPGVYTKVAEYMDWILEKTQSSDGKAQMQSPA
Assay: Enzyme inhibition assay (fluorogenic substrate H-Pro-Phe-Arg-AMC)
Assay type: biochemical
Settings: Kallikrein inhibitory activity; 1 nM activated human kallikrein, 500 μM H-Pro-Phe-Arg-AMC, 1 hour room temperature; read-out: Avg. IC50
Method: Activated human plasma kallikrein (Enzyme Research Laboratories, HPKa 1303) was reacted with H-Pro-Phe-Arg-7-amido-4-methylcoumarin (H-Pro-Pre-Arg-AMC) (a fluorogenic substrate for plasma as well as pancreatic and urinary kallikreins; Bachem I-1295) and candidate inhibitory peptides to determine the IC50 of the inhibitor.
Ten 8-fold serial dilutions of peptides (10 mM DMSO stocks) were performed in DMSO and then added to TCNB (50 mM Tris-HCl pH 7.2, 150 mM NaCl, 10 mM CaCl2, 0.05% Brij-35) and sonicated. 50 μL of the peptide dilutions were added to microtitre plates (96 well, black non-binding surface, Corning, 3650) and incubated for 5 minutes at room temperature with 4 nM activated human kallikrein (final concentration after addition of fluorogenic substrate: 1 nM). The samples were then incubated for 1 hour at room temperature with 2 mM H-Pro-Phe-Arg-AMC (final concentration 500 μM). Relative Fluorescence Units (RFU) were measured at excitation/emission 360 nm/460 nm by a SpectraMax M3.

| SMILES | IC50 |
| --- | --- |
| CC[C@H](C)[C@H](NC(=O)[C@H](CO)NC(=O)[C@H](CCC(=O)O)NC(=O)[C@H](CS)NC(=O)[C@@H](N)CCSC)C(=O)N[C@@H](CS)C(=O)N[C@@H](CCCNC(=N)N)C(=O)N[C@H](C(N)=O)C(C)C [Compound R2007, MCESICRV-NH2] (H-MCESICRV-NH2; N-terminus assumed) | 2000 nM |
| CCC[C@H](N)C(=O)N[C@H]1CSCc2cccc(c2)CSC[C@@H](C(=O)N[C@@H](CCCNC(=N)N)C(=O)N[C@H](C(N)=O)C(C)(C)C)NC(=O)[C@H](c2ccccc2)NC(=O)[C@H](CO)NC(=O)[C@H](CCC(=O)O)NC1=O [Compound R2013, [mXylyl(2,6)]Nvl-CES-Phg-CR-Tbg-NH2] (H-[Nva]CES[Phg]CR[Tle]-NH2; linker 2-6 via mXylylene) | 6.8 nM |
| CC[C@H](C)[C@@H]1NC(=O)[C@H](CO)NC(=O)[C@H](Cc2nn[nH]n2)NC(=O)[C@@H](NC(=O)[C@@H](N)CCSC)CSCc2cccc(c2)CSC[C@@H](C(=O)N[C@@H](CCCNC(=N)N)C(=O)N[C@H](C(N)=O)C(C)C)NC1=O [Compound R2020, [mXylyl(2,6)]MC-Asp(T)-SICRV-NH2] (H-MC[Ala(1H-tetrazol-5-yl)]SICRV-NH2; linker 2-6 via mXylylene) | 13 nM |
| CCC[C@H](N)C(=O)N[C@H]1CSCc2cccc(c2)CSC[C@@H](C(=O)N[C@@H](Cc2ccc(CN)cc2)C(=O)N[C@H](C(N)=O)C(C)C)NC(=O)[C@H]([C@@H](C)CC)NC(=O)[C@H](CO)NC(=O)[C@H](CCC(=O)O)NC1=O [Compound R2021, [mXylyl(2,6)]Nvl-CESIC-Phe(4-CH2NH2)-V-NH2] (H-[Nva]CESIC[Phe(4-CH2NH2)]V-NH2; linker 2-6 via mXylylene) | 2000 nM |
| CC[C@H](C)[C@H]1C(=O)N[C@H](C(=O)N[C@@H](CCCNC(=N)N)C(=O)N[C@H](C(N)=O)C(C)C)CSCc2cccc(c2)CSC[C@H](NC(=O)[C@@H](N)CCSC)C(=O)N[C@@H](CCC(=O)O)C(=O)N[C@@H](CO)C(=O)N1C [Compound R2026, [mXylyl(2,6)]MCES-nMeI-CRV-NH2] (H-MCES[NMeI]CRV-NH2; linker 2-6 via mXylylene) | 26 nM |
| CCC[C@H](N)C(=O)N[C@@H]1C(=O)N[C@@H](CCC(=O)O)C(=O)N[C@@H](CO)C(=O)N[C@@H]([C@@H](C)CC)C(=O)N[C@H](C(=O)N[C@@H](CCCNC(=N)N)C(=O)N[C@H](C(N)=O)C(C)C)CSCc2cccc(c2)CSC1(C)C [Compound R2031, [mXylyl(2,6)]Nvl-Pen-ESICRV-NH2] (H-[Nva][Pen]ESICRV-NH2; linker 2-6 via mXylylene) | 1460 nM |
| CCC[C@H](N)C(=O)N[C@@H]1C(=O)N[C@@H](CCC(=O)O)C(=O)N[C@@H](CO)C(=O)N[C@@H]([C@@H](C)CC)C(=O)N[C@H](C(=O)N[C@@H](CCCNC(=N)N)C(=O)N[C@H](C(N)=O)C(C)C)C(C)(C)SCc2cccc(c2)CSC1(C)C [Compound R2034, [mXylyl(2,6)]Nvl-Pen-ESI-Pen-RV-NH2] (H-[Nva][Pen]ESI[Pen]RV-NH2; linker 2-6 via mXylylene) | > 100000 nM |
| CCCC[C@@H]1NC(=O)[C@@H](NC(C)=O)CSCc2cccc(c2)CSC[C@@H](C(=O)N[C@@H](CCCNC(=N)N)C(=O)N[C@H](C(N)=O)C(C)(C)C)NC(=O)[C@H](c2ccccc2)NC(=O)[C@H](CO)NC1=O [Compound R2065, [mXylyl(1,5)]Ac-C-Nle-S-Phg-CR-Tbg-NH2] (Ac-C[Nle]S[Phg]CR[Tle]-NH2; linker 1-5 via mXylylene) | 6.1 nM |
| CC(=O)N[C@H]1CSCc2cccc(c2)CSC[C@@H](C(=O)N[C@@H](CCCNC(=N)N)C(=O)N[C@H](C(N)=O)C2CC2)NC(=O)[C@H](c2ccccc2)NC(=O)[C@H](CO)NC(=O)[C@@H](C)NC1=O [Compound R2070, [mXylyl(1,5)]Ac-C-a-S-Phg-CR-Cppg-NH2] (Ac-C[dA]S[Phg]CR[Gly(cPr)]-NH2; linker 1-5 via mXylylene) | 118 nM |
| CC[C@H](C)[C@@H]1NC(=O)[C@H](C)NC(=O)[C@H](C)NC(=O)CCSCc2cccc(c2)CSC[C@@H](C(=O)N[C@@H](CCCNC(=N)N)C(=O)N[C@H](C(N)=O)C(C)C)NC1=O [Compound R2072, [mXylyl(1,5)](des-NH2)C-AAICRV-NH2] ([Mpa]AAICRV-NH2; linker 1-5 via mXylylene) | 13 nM |
| CC[C@H](C)[C@@H]1NC(=O)[C@H](CO)NC(=O)[C@H](CCC(=O)O)NC(=O)[C@@H](NC(=O)[C@@H](N)CCSC)CSCc2cccc(c2)CSC[C@@H](C(=O)N[C@@H](CCCNC(=N)N)C(=O)N[C@@H](CCC(=O)O)C(N)=O)NC1=O [Compound R2087, [mXylyl(2,6)]MCESICRE-NH2] (H-MCESICRE-NH2; linker 2-6 via mXylylene) | > 16600 nM |
| CC(=O)N[C@@H](CS)C(=O)N[C@@H](CC(N)=O)C(=O)N[C@@H](Cc1ccc(O)cc1)C(=O)N[C@@H](Cc1c[nH]c2ccccc12)C(=O)N[C@@H](C)C(=O)N1CCC[C@H]1C(=O)N[C@@H](Cc1c[nH]c2ccccc12)C(=O)N[C@H](C(=O)N[C@@H](CCC(=O)O)C(=O)N[C@@H](CS)C(N)=O)[C@@H](C)O [Compound R2131, Ac-CNYWAPWTEC-NH2] (Ac-CNYWAPWTEC-NH2) | 127 nM |
| CC(=O)N[C@H]1CSCc2cccc(c2)CSC[C@@H](C(N)=O)NC(=O)[C@H](C)NC(=O)[C@H]([C@@H](C)O)NC(=O)[C@H](Cc2c[nH]c3ccccc23)NC(=O)[C@@H]2CCCN2C(=O)[C@H](CO)NC(=O)[C@H](Cc2c[nH]c3ccccc23)NC(=O)[C@H](Cc2ccc(O)cc2)NC(=O)[C@H](CC(N)=O)NC1=O [Compound R2136, [mXylyl(1,10)]Ac-CNYWSPWTAC-NH2] (Ac-CNYWSPWTAC-NH2; linker 1-10 via mXylylene) | 6.1 nM |

Now those with a lower IC50, led by results:

| IC50 | SMILES |
| --- | --- |
| 3.5 nM | CSCC[C@H](N)C(=O)N[C@@H](CS)C(=O)N[C@@H](CC(N)=O)C(=O)N[C@@H](Cc1ccc(O)cc1)C(=O)N[C@@H](Cc1c[nH]c2ccccc12)C(=O)N[C@@H](CO)C(=O)N1CCC[C@H]1C(=O)N[C@@H](Cc1c[nH]c2ccccc12)C(=O)N[C@H](C(=O)N[C@@H](CCC(=O)O)C(=O)N[C@@H](CS)C(=O)N[C@@H](CO)C(N)=O)[C@@H](C)O [Compound R2110, MCNYWSPWTECS-NH2] (H-MCNYWSPWTECS-NH2; N-terminus assumed) |
| 3.5 nM | CC(=O)N[C@@H](CS)C(=O)N[C@@H](CC(N)=O)C(=O)N[C@@H](Cc1ccc(O)cc1)C(=O)N[C@@H](Cc1c[nH]c2ccccc12)C(=O)N[C@@H](CO)C(=O)N1CCC[C@H]1C(=O)N[C@@H](Cc1c[nH]c2ccccc12)C(=O)N[C@H](C(=O)N[C@@H](CCC(=O)O)C(=O)N[C@@H](CS)C(=O)N[C@@H](CO)C(=O)N[C@@H](C)C(N)=O)[C@@H](C)O [Compound R2116, Ac-CNYWSPWTECSA-NH2] (Ac-CNYWSPWTECSA-NH2) |
| 3.2 nM | C[C@@H]1NC(=O)C(C)(C)NC(=O)CCSCc2cccc(c2)CSC[C@@H](C(=O)N[C@@H](CCCNC(=N)N)C(=O)N[C@H](C(N)=O)C(C)(C)C)NC(=O)[C@H](C2CCCCC2)NC1=O [Compound R2091, [mXylyl(1,5)](des-NH2)C-Aib-A-Chg-CR-Tbg-NH2] ([Mpa][Aib]A[Chg]CR[Tle]-NH2; linker 1-5 via mXylylene) |
| 3.1 nM | CSCC[C@H](N)C(=O)N[C@H]1CSCc2cccc(c2)CSC[C@@H](C(=O)N[C@@H](CO)C(=O)N[C@@H](CCCNC(=N)N)C(N)=O)NC(=O)[C@H](CCC(=O)O)NC(=O)[C@H]([C@@H](C)O)NC(=O)[C@H](Cc2c[nH]c3ccccc23)NC(=O)[C@@H]2CCCN2C(=O)[C@H](CO)NC(=O)[C@H](Cc2c[nH]c3ccccc23)NC(=O)[C@H](Cc2ccc(O)cc2)NC(=O)[C@H](CC(N)=O)NC1=O [Compound R2003, [mXylyl(2,11)]MCNYWSPWTECSR-NH2] (H-MCNYWSPWTECSR-NH2; linker 2-11 via mXylylene) |
| 2.7 nM | CC(=O)N[C@H]1CSSC[C@@H](C(N)=O)NC(=O)[C@H](C)NC(=O)[C@H]([C@@H](C)O)NC(=O)[C@H](Cc2c[nH]c3ccccc23)NC(=O)[C@@H]2CCCN2C(=O)[C@H](CO)NC(=O)[C@H](Cc2c[nH]c3ccccc23)NC(=O)[C@H](Cc2ccc(O)cc2)NC(=O)[C@H](CC(N)=O)NC1=O [Compound R2142, [cyclo(1,10)]Ac-CNYWSPWTAC-NH2] (Ac-CNYWSPWTAC-NH2; disulfide 1-10) |
| 1.9 nM | CC[C@H](C)[C@@H]1NC(=O)[C@H](CO)NC(=O)[C@H](CCC(=O)O)NC(=O)[C@@H](NC(C)=O)CSCc2cccc(c2)CSC[C@@H](C(=O)N[C@@H](CCCNC(=N)N)C(=O)N[C@H](C(=O)N[C@@H](CC(C)C)C(=O)N[C@@H](CCCNC(=N)N)C(=O)N[C@@H](Cc2ccc(O)cc2)C(=O)N[C@@H](CO)C(N)=O)C(C)C)NC1=O [Compound R2056, [mXylyl(1,5)]Ac-CESICRVLRYS-NH2] (Ac-CESICRVLRYS-NH2; linker 1-5 via mXylylene) |
| 0.501 nM | CC[C@H](C)[C@@H]1NC(=O)[C@H](CO)NC(=O)[C@H](CCC(=O)O)NC(=O)[C@@H](NC(=O)[C@@H](N)CCSC)CSCc2cccc(c2)CSC[C@@H](C(=O)N[C@@H](CCCNC(=N)N)C(=O)N[C@H](C(=O)N[C@@H](CC(C)C)C(=O)N[C@@H](CCCNC(=N)N)C(=O)N[C@@H](Cc2ccc(O)cc2)C(=O)N[C@@H](CO)C(=O)N[C@@H](CCC(=O)O)C(N)=O)C(C)C)NC1=O [Compound R2004, [mXylyl(2,6)]MCESICRVLRYSE-NH2] (H-MCESICRVLRYSE-NH2; linker 2-6 via mXylylene) |

Reference: US9999650B2, “Peptide and peptidomimetic inhibitors” (Ra Pharmaceuticals, Inc., priority 2012, dated 2018)
